Drawing on US8207216B2, “Benzofuran-3-yl(indol-3-yl) maleimides as potent GSK3 inhibitors” (The Board of Trustees of the University of Illinois, priority 2006, dated 2012), this text covers Ki and IC50 for 29 molecules.

T1 sequence (P49841 whole entry): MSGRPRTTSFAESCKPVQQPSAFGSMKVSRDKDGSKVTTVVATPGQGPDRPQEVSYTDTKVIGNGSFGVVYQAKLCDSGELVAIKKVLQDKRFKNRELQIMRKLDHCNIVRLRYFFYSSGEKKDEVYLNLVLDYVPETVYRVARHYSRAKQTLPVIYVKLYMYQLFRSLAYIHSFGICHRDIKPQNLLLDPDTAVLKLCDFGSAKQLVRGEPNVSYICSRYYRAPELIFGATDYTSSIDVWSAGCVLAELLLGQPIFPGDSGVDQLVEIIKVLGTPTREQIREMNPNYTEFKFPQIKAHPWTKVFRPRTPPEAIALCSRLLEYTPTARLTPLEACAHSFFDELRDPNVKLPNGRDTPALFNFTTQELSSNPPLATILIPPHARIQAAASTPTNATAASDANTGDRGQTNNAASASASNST

One test addresses T1, recombinant human His6-GSK-3β (Homo sapiens, UniProt P49841).
T1 construct: His6; purchased EMD Biosciences
Put plainly: GSK-3β kinase assay, [γ32P] transfer to primed glycogen synthase peptide.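 Also: phosphate incorporation quantified by liquid scintillation counting of the filters.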 It is filed as biochemical.
Settings: not given
Turning to “3-(6-Chloro-5-methoxy-1-methyl-1H-indol-3-yl)-4-(6-methoxy-benzofuran-3-yl)-pyrrole-2,5-dione [Compound 14]”, the Ki was found to be 580 nM.

The test is the same for the next values; noted with them: 10 μM ATP; 10 μM pGSM peptide; 30 minutes at 30° C.; read-out: IC50 (nM), GSK-3β inhibition.
For the molecule “3-(6-Chloro-5-methoxy-1-methyl-1H-indol-3-yl)-4-(6-methoxy-benzofuran-3-yl)-pyrrole-2,5-dione [Compound 14]”, the 50% inhibitory concentration (IC50) was found to be 870 ± 160 nM.

For the molecule `O=C1NC(=O)C(c2coc3ccc(F)cc23)=C1c1c[nH]c2ccccc12` [Compound 2, 3-(5-Fluoro-benzofuran-3-yl)-4-(1H-indol-3-yl)-pyrrole-2,5-dione], the IC50 turned out to be 670 ± 40 nM.

Take `Cn1cc(C2=C(c3coc4ccc(Br)cc34)C(=O)NC2=O)c2ccccc21` [Compound 3, 3-(5-Bromo-benzofuran-3-yl)-4-(1-methyl-1H-indol-3-yl)-pyrrole-2,5-dione]: the IC50 amounted to 550 ± 20 nM. Consider `COc1cccc2c(C3=C(c4cn(C)c5ccccc45)C(=O)NC3=O)coc12` [Compound 4, 3-(7-Methoxy-benzofuran-3-yl)-4-(1-methyl-1H-indol-3-yl)-pyrrole-2,5-dione], for which the IC50 amounted to 180 ± 15 nM. In the case of `O=C1NC(=O)C(c2coc3ccccc23)=C1c1c[nH]c2ccc(F)cc12` [Compound 5, 3-Benzofuran-3-yl-4-(5-fluoro-1H-indol-3-yl)-pyrrole-2,5-dione], the concentration for half-maximal inhibition (IC50) is 360 ± 40 nM. Same read-out and setting: with `Cn1cc(C2=C(c3coc4ccccc34)C(=O)NC2=O)c2cc(F)ccc21` [Compound 6, 3-Benzofuran-3-yl-4-(5-fluoro-1-methyl-1H-indol-3-yl)-pyrrole-2,5-dione] the figure was 26 ± 6 nM.

On to `Cn1cc(C2=C(c3coc4cc(O)ccc34)C(=O)NC2=O)c2cc(F)ccc21` [Compound 9, 3-(5-Fluoro-1-methyl-1H-indol-3-yl)-4-(6-hydroxy-benzofuran-3-yl)-pyrrole-2,5-dione], for which the IC50 was 3.5 ± 1.3 nM. For the molecule `COc1cccc2c(C3=C(c4cn(C)c5cc(Br)c(F)cc45)C(=O)NC3=O)coc12` [Compound 11, 3-(6-Bromo-5-fluoro-1-methyl-1H-indol-3-yl)-4-(7-methoxy-benzofuran-3-yl)-pyrrole-2,5-dione], the IC50 was 59.7 ± 6.57 nM. On to `COc1cccc2c(C3=C(c4cn(C)c5cc(-c6ccc(Cl)cc6)c(F)cc45)C(=O)NC3=O)coc12` [Compound 18, 3-[6-(4-Chlorophenyl)-5-fluoro-1-methyl-1H-indol-3-yl]-4-(7-methoxy-benzofuran-3-yl)-pyrrole-2,5-dione], for which the IC50 amounted to 7160 ± 1200 nM. For `C=CCOc1ccc2c(C3=C(c4cn(C)c5ccc(Br)cc45)C(=O)NC3=O)coc2c1` [Compound 24, 3-(6-Allyloxy-benzofuran-3-yl)-4-(5-bromo-1-methyl-1H-indol-3-yl)-pyrrole-2,5-dione], the IC50 was found to be 48.3 ± 7 nM. As to `COc1ccc(COc2ccc3c(C4=C(c5cn(C)c6ccc(Br)cc56)C(=O)NC4=O)coc3c2)cc1` [Compound 25, 3-(5-Bromo-1-methyl-1H-indol-3-yl)-4-[6-(4-methoxy-benzyloxy)-benzofuran-3-yl]-pyrrole-2,5-dione], the IC50 was 335 ± 37 nM. Same read-out and setting: with `COc1cccc2c(C3=C(c4cn(C)c5c(Br)cc(Br)cc45)C(=O)NC3=O)coc12` [Compound 26, 3-(5,7-Dibromo-1-methyl-1H-indol-3-yl)-4-(7-methoxy-benzofuran-3-yl)-pyrrole-2,5-dione] the figure was 88.7 ± 5.6 nM. `Cn1cc(C2=C(c3coc4ccc(F)cc34)C(=O)NC2=O)c2cc(I)ccc21` [Compound 29, 3-(5-Fluoro-benzofuran-3-yl)-4-(5-iodo-1-methyl-1H-indol-3-yl)-pyrrole-2,5-dione]: the 50% inhibitory concentration (IC50) was found to be 180 ± 11 nM. For the molecule `Cn1cc(C2=C(c3coc4ccccc34)C(=O)NC2=O)c2cc(O)ccc21` [Compound 30, 3-Benzofuran-3-yl-4-(5-hydroxy-1-methyl-1H-indol-3-yl)-pyrrole-2,5-dione], the IC50 was determined as 690 ± 100 nM. As for `Cn1cc(C2=C(c3coc4ccccc34)C(=O)NC2=O)c2cc(OCc3ccccc3)ccc21` [Compound 31, 3-Benzofuran-3-yl-4-(5-benzyloxy-1-methyl-1H-indol-3-yl)-pyrrole-2,5-dione], the IC50 came out at 500 ± 60 nM. With `O=C1NC(=O)C(c2cn(CCCO)c3ccc(OCc4ccccc4)cc23)=C1c1coc2ccccc12` [Compound 32, 3-Benzofuran-3-yl-4-[5-benzyloxy-1-(3-hydroxy-propyl)-1H-indol-3-yl]-pyrrole-2,5-dione], the concentration for half-maximal inhibition (IC50) came to 220 ± 30 nM. Regarding `Cn1cc(C2=C(c3coc4cc(CO)ccc34)C(=O)NC2=O)c2cc(C#N)ccc21` [Compound 34, 3-[4-(6-Hydroxymethyl-benzofuran-3-yl)-2,5-dioxo-2,5-dihydro-1H-pyrrol-3-yl]-1-methyl-1H-indole-5-carbonitrile], the IC50 amounted to 13.2 ± 3.2 nM. As for `Cn1cc(C2=C(c3coc4ccccc34)C(=O)NC2=O)c2cc(N3CCOCC3)ccc21` [Compound 39, 3-Benzofuran-3-yl-4-(1-methyl-5-morpholin-4-yl-1H-indol-3-yl)-pyrrole-2,5-dione], the IC50 was 1300 ± 146 nM.

As to `COc1ccc2c(c1)c(C1=C(c3coc4ccccc34)C(=O)NC1=O)cn2C` [Compound 41, 3-Benzofuran-3-yl-4-(5-methoxy-1-methyl-1H-indol-3-yl)-pyrrole-2,5-dione], the IC50 worked out at 125 ± 35 nM. In the case of `COc1cc2c(C3=C(c4coc5ccccc45)C(=O)NC3=O)cn(C)c2cc1I` [Compound 43, 3-Benzofuran-3-yl-4-(6-iodo-5-methoxy-1-methyl-1H-indol-3-yl)-pyrrole-2,5-dione], the IC50 is 223 ± 22 nM.

As for `Cn1cc(C2=C(c3coc4ccccc34)C(=O)NC2=O)c2ccc(OCc3ccccc3)cc21` [Compound 47, 3-Benzofuran-3-yl-4-(6-benzyloxy-1-methyl-1H-indol-3-yl)-pyrrole-2,5-dione], the IC50 was determined as 900 ± 80 nM. Same read-out and setting: with `Cn1cc(C2=C(c3coc4ccccc34)C(=O)NC2=O)c2cccc(CO)c21` [Compound 50, 3-Benzofuran-3-yl-4-(7-hydroxymethyl-1-methyl-1H-indol-3-yl)-pyrrole-2,5-dione] the figure was 5.4 ± 0.7 nM; with `Cn1cc(C2=C(c3coc4cc(CO)ccc34)C(=O)NC2=O)c2cccc(CO)c21` [Compound 51, 3-(6-Hydroxymethyl-benzofuran-3-yl)-4-(7-hydroxymethyl-1-methyl-1H-indol-3-yl)-pyrrole-2,5-dione], 5.1 ± 1.2 nM; with `Cn1cc(C2=C(c3coc4ccccc34)C(=O)NC2=O)c2cccc(O)c21` [Compound 53, 3-Benzofuran-3-yl-4-(7-hydroxy-1-methyl-1H-indol-3-yl)-pyrrole-2,5-dione], 55 ± 8 nM. As to `Cn1cc(C2=C(c3coc4ccccc34)C(=O)NC2=O)c2cccc(OCc3ccccc3)c21` [Compound 54, 3-Benzofuran-3-yl-4-(7-benzyloxy-1-methyl-1H-indol-3-yl)-pyrrole-2,5-dione], the IC50 was determined as 220 ± 45 nM. On the same count and under the same terms, with `CN1C(=O)C(c2coc3cc(CO)ccc23)=C(c2cn(C)c3ccc(F)cc23)C1=O` [Compound 56, 3-(5-Fluoro-1-methyl-1H-indol-3-yl)-4-(6-hydroxymethyl-benzofuran-3-yl)-1-methyl-pyrrole-2,5-dione] the figure was 0.35 ± 0.06 nM; with `Cn1cc(C2=C(c3coc4ccccc34)C(=O)NC2=O)c2cccc(CCC(=O)O)c21` [Compound 86], 1.2 ± 0.2 nM. Take `COCc1cccc2c(C3=C(c4coc5cc(CO)ccc45)C(=O)NC3=O)cn(C)c12` [Compound 92]: the IC50 is 0.73 ± 0.1 nM.

For `CCOC(=O)CCc1cccc2c(C3=C(c4coc5ccccc45)C(=O)NC3=O)cn(C)c12` [Compound 93], the IC50 came to 10.2 ± 3.6 nM.

In the next test the test system is MIAPaCa-2. The test can be described thus: Antiproliferation MTS assay, pancreatic cancer cells. In kind it is cell-based. As to conditions: Homo sapiens, MIA PaCa-2; 72 hrs, MTS.
The molecule `O=C1NC(=O)C(c2coc3ccccc23)=C1c1c[nH]c2ccc(F)cc12` [Compound 5, 3-Benzofuran-3-yl-4-(5-fluoro-1H-indol-3-yl)-pyrrole-2,5-dione] had an IC50 of 21 µM.
